How the values were obtained:
[1] = tested on: Human monocytic dendritic cells infected with AAV.SAN024; assay: Cytokine release (Meso Scale Discovery) from dendritic cells treated with IRAK4 modulators and infected with AAV; format: cell-based; conditions: for AAV-induced secretion of IL1b cytokine from dendritic cells: 80 nM, all doses
Method: Preparation of peripheral blood mononuclear cells. Blood from leukopaks (Stem cell technologies) from different donors was decanted into 50 mL tubes and Dulbecco's phosphate buffered saline (DPBS) was added at a 1:1 ratio. The blood plus DBPS mix was gently pipetted into a separate 50 mL tube containing 15 mL Ficoll (GE17-5442-02) to ensure no mixing of the blood and Ficoll phases. The mixture was centrifuged at 2000 RPM for 25 minutes at room temperature (9 acceleration and no braking). The buffy coat containing the peripheral blood mononuclear cells (PBMCs) was collected, transferred to a new tube, and centrifuged for five minutes at 400 RCF. PBMCs were washed three times with phosphate buffered saline (PBS) containing 1% fetal bovine serum (FBS) or fetal calf serum (FCS) and counted.
Isolation of monocytes. CD14+ monocytes were isolated from the PBMCs using CD14 MicroBeads following the manufacturer's protocol (Miltenyi Biotech, Germany, order no. 130-050-201, protocol available online world wide web miltenyibiotec.com/upload/assets/IM0001260.PDF). Briefly, PBMCs were incubated with 20 μL of CD14 MicroBeads per 10^7 total cells for 15 minutes at 2-8° C. PBMCs were applied onto a magnetic column (Miltenyi; world wide web miltenyibiotec.com/US-en/products/ls-columns.html#130-042-401) and unlabeled cells were allowed to pass through. After washing the column three times, the column was removed from the magnetic separator, (Miltneyi; world wide web miltenyibiotec.com/US-en/products/quadromacs-separator-and-starting-kits.html#130-091-051) placed on a collection tube, and magnetically labeled CD14+ monocytes were flushed out by pushing a plunger into the column.
Differentiation of monocytes. CD14+ monocytes were differentiated into dendritic cells using ImmunoCult-ACF Dendritic Cell Media, Differentiation Supplement, and Maturation Supplement (Stem Cell Technologies, catalog #10986, #10988, and #10989; world wide web cdn.stemcell.com/media/Files/pis/DX20521-PIS_1_2_0.pdf?_ga=2.81451927.1035383195.1642105700-1174975582.1603298321) following the manufacturer's protocol available online. Briefly, purified CD14+ monocytes were added to Dendritic Cell Media containing the Differentiation Supplement and incubated at 37° C. for three days. On day 3, media was replaced with fresh Dendritic Cell media containing Differentiation Supplement and cells were incubated for two additional days. On day 5, Maturation Supplement was added to the cells at a 1 to 100 dilution (e.g. 50 μL supplement per 5 mL culture). Differentiated dendritic cells were harvested on day 7.
rAAV production and titration. rAAV vectors (AAV.SAN024 and AAV.SAN029) were produced using a standard triple transfection method (Sena-Esteves and Gao, Cold Spring Harb Protoc; doi:10.1101/pdb.top095513, 2020). All serotypes tested encode the same GFP transgene. Viruses were purified by cesium chloride ultracentrifugation and titrated using both silver staining and quantitative polymerase chain reaction (qPCR).
IRAK4 targeting drugs and AAV Treatments. Dendritic cells were plated in 96 well plates with 200,000 cells per well. Each treatment was performed in triplicates. Cells were treated with zimlovisertib IRAK4 inhibitor (Synonyms: PF-06650833) Cat. No.: HY-19836 (MedChemExpress) and PROTAC IRAK4 degrader-1 Cat. No.: HY-129966 (MedChemExpress) at 16 nm, 80 nm, 400 nm and 2000 nm for 18 hrs at 37° C., 5% CO2 in an incubator. […] The cells were incubated at 37° C., 5% CO2 in an incubator for 24 hours. After 24 hours, plates were centrifuged and media supernatant was collected. The clarified media was analyzed by Meso Scale Discovery MSD (world wide web mesoscale.com/products/v-plex-proinflammatory-panel-1-human-kit-k15049d/) performed by DC3 therapeutics https://www.dc3therapeutics.com/services. The experiment outline of PBMC isolation, monocyte purification and dendritic cell differentiation is illustrated in FIG. 1. […]

[2] = tested on: Human monocytic dendritic cells; assay: LDH release assay (cell cytotoxicity); format: cell-based; conditions: 16 nM, 80 nM, 400 nM and 2000 nM with AAV.SAN024 MOI 1e5 24 hrs, versus untreated/uninfected cells
Method: IRAK4 targeting drugs and AAV Treatments. Dendritic cells were plated in 96 well plates with 200,000 cells per well. Each treatment was performed in triplicates. Cells were treated with zimlovisertib IRAK4 inhibitor (Synonyms: PF-06650833) Cat. No.: HY-19836 (MedChemExpress) and PROTAC IRAK4 degrader-1 Cat. No.: HY-129966 (MedChemExpress) at 16 nm, 80 nm, 400 nm and 2000 nm for 18 hrs at 37° C., 5% CO2 in an incubator. After pre-treatment of 18 hrs with the drugs, AAV vectors at 1e5 MOI were used. The cells were incubated at 37° C., 5% CO2 in an incubator for 24 hours. After 24 hours, plates were centrifuged and media supernatant was collected. The clarified media was analyzed by Meso Scale Discovery MSD (world wide web mesoscale.com/products/v-plex-proinflammatory-panel-1-human-kit-k15049d/) performed by DC3 therapeutics https://www.dc3therapeutics.com/services. […]
LDH Release Assay. Cell cytotoxicity was measured by release of lactate dehydrogenase (LDH) in media supernatants. LDH was quantified using Promega kit (Catalog #G1780) as per manufacturer's protocol. […] Stop Solution was added, and the absorbance signal is measured at 490 nm in a plate reader. https://www.promega.com/products/cell-health-assays/cell-viability-and-cytotoxicity-assays/cytotox-96-non_radioactive-cytotoxicity-assay/?catNum=G1780#protocols […]

[3] = co-treated with 16 nM, 400 nM and 2000 nM and AAV.SAN024 MOI 1e5 at the same time, 24 hrs
[4] = co-treated with 16-2000 nM and AAV.SAN024 MOI 1e5, 24 hrs
[5] = pre-treated 18 hrs with 16 nM, 400 nM and 2000 nM, then AAV.SAN024 MOI 1e5 24 hrs, three donors
[6] = pre-treated 18 hrs with 16-2000 nM, then AAV.SAN024 MOI 1e5 24 hrs

## O=C1CCC(N2C(=O)c3cccc(NCc4cn(CCCNC(=O)c5ccc(-n6cc(NC(=O)c7coc(-c8ccnc(NCC9CC9)c8)n7)c(C(F)(F)F)n6)cc5)cn4)c3C2=O)C(=O)N1 (centres unmarked) [PROTAC IRAK4 degrader-1]
[1]; [3]
  AAV-induced secretion of IL1b cytokine from dendritic cells: blocked
[1]; [4]
  AAV-induced IL6 release from dendritic cells: Cytokine block was also observed
  AAV-induced TNFα release from dendritic cells: Cytokine block was also observed
[1]; [5]
  AAV-induced secretion of IL1b cytokine from dendritic cells: blocked
[1]; [6]
  AAV-induced IL6 release from dendritic cells: Cytokine block was also observed
  AAV-induced TNFα release from dendritic cells: Cytokine block was also observed
[2]
  Cellular toxicity (LDH release in media supernatants): no cellular toxicity

## CC[C@@H]1[C@H](F)C(=O)N[C@@H]1COc1nccc2cc(C(N)=O)c(OC)cc12 [zimlovisertib, 1-[[(2S,3S,4S)-3-Ethyl-4-fluoro-5-oxo-2-pyrrolidinyl]methoxy]-7-methoxy-6-isoquinolinecarboxamide]
[1]; [3]
  AAV-induced secretion of IL1b cytokine from dendritic cells: blocked
[1]; [4]
  AAV-induced IL6 release from dendritic cells: Cytokine block was also observed
  AAV-induced TNFα release from dendritic cells: Cytokine block was also observed
[1]; [5]
  AAV-induced secretion of IL1b cytokine from dendritic cells: blocked
[1]; [6]
  AAV-induced IL6 release from dendritic cells: Cytokine block was also observed
  AAV-induced TNFα release from dendritic cells: Cytokine block was also observed
[2]
  Cellular toxicity (LDH release in media supernatants): no cellular toxicity
